According to ChEMBL document CHEMBL4507329, “Data for DCP probe BTZO-1” (2021):

What was measured:
Conditions in all cases: Compound concentration 1000.0 nM
[1] = system: Tyrosine-protein kinase ABL1 (Homo sapiens), P00519 [F317L]
[2] = system: Tyrosine-protein kinase ABL1 (Homo sapiens), P00519 [Q252H]
[3] = system: Tyrosine-protein kinase ABL1 (Homo sapiens), P00519 [T315I]
[4] = biological target: Bone morphogenetic protein receptor type-1A (Homo sapiens) (UniProt P36894)
[5] = biological target: Tyrosine-protein kinase BTK (Homo sapiens) (UniProt Q06187)
[6] = biological target: Calcium/calmodulin-dependent protein kinase type 1G (Homo sapiens) (UniProt Q96NX5)
[7] = biological target: Calcium/calmodulin-dependent protein kinase type II subunit gamma (Homo sapiens) (UniProt Q13555)
[8] = biological target: Cyclin-dependent kinase 19 (Homo sapiens) (UniProt Q9BWU1)
[9] = biological target: Cyclin-dependent kinase 4 (Homo sapiens) (UniProt P11802)
[10] = biological target: Casein kinase I isoform gamma-3 (Homo sapiens) (UniProt Q9Y6M4)
[11] = biological target: Megakaryocyte-associated tyrosine-protein kinase (Homo sapiens) (UniProt P42679)
[12] = biological target: Serine/threonine-protein kinase DCLK3 (Homo sapiens) (UniProt Q9C098)
[13] = biological target: Ephrin type-A receptor 1 (Homo sapiens) (UniProt P21709)
[14] = system: Receptor-type tyrosine-protein kinase FLT3 (Homo sapiens), P36888 [D835Y]
[15] = biological target: Vascular endothelial growth factor receptor 3 (Homo sapiens) (UniProt P35916)
[16] = biological target: Tyrosine-protein kinase FRK (Homo sapiens) (UniProt P42685)
[17] = biological target: Glycogen synthase kinase-3 alpha (Homo sapiens) (UniProt P49840)
[18] = biological target: Tyrosine-protein kinase HCK (Homo sapiens) (UniProt P08631)
[19] = biological target: Insulin receptor-related protein (Homo sapiens) (UniProt P14616)
[20] = biological target: Tyrosine-protein kinase ITK/TSK (Homo sapiens) (UniProt Q08881)
[21] = biological target: Mitogen-activated protein kinase 8 (Homo sapiens) (UniProt P45983)
[22] = system: Mast/stem cell growth factor receptor Kit (Homo sapiens), P10721 [V559D]
[23] = biological target: Serine/threonine-protein kinase LATS1 (Homo sapiens) (UniProt O95835)
[24] = biological target: Serine/threonine-protein kinase LATS2 (Homo sapiens) (UniProt Q9NRM7)
[25] = biological target: Microtubule-associated serine/threonine-protein kinase 1 (Homo sapiens) (UniProt Q9Y2H9)
[26] = biological target: Dual specificity mitogen-activated protein kinase kinase 1 (Homo sapiens) (UniProt Q02750)
[27] = biological target: Dual specificity mitogen-activated protein kinase kinase 4 (Homo sapiens) (UniProt P45985)
[28] = biological target: Misshapen-like kinase 1 (Homo sapiens) (UniProt Q8N4C8)
[29] = biological target: Serine/threonine-protein kinase MRCK alpha (Homo sapiens) (UniProt Q5VT25)
[30] = biological target: Serine/threonine-protein kinase MRCK beta (Homo sapiens) (UniProt Q9Y5S2)
[31] = biological target: Serine/threonine-protein kinase 38 (Homo sapiens) (UniProt Q15208)
[32] = biological target: Serine/threonine-protein kinase PAK 2 (Homo sapiens) (UniProt Q13177)
[33] = biological target: Serine/threonine-protein kinase PAK 3 (Homo sapiens) (UniProt O75914)
[34] = biological target: Phosphatidylinositol 4,5-bisphosphate 3-kinase catalytic subunit gamma isoform (Homo sapiens) (UniProt P48736)
[35] = biological target: Phosphatidylinositol 4-phosphate 5-kinase type-1 alpha (Homo sapiens) (UniProt Q99755)
[36] = biological target: Phosphatidylinositol 5-phosphate 4-kinase type-2 beta (Homo sapiens) (UniProt P78356)
[37] = biological target: Serine/threonine-protein kinase D2 (Homo sapiens) (UniProt Q9BZL6)
[38] = biological target: Serine/threonine-protein kinase RIO2 (Homo sapiens) (UniProt Q9BVS4)
[39] = biological target: Ribosomal protein S6 kinase alpha-1 (Homo sapiens) (UniProt Q15418)
[40] = biological target: Ribosomal protein S6 kinase alpha-3 (Homo sapiens) (UniProt P51812)
[41] = biological target: Ribosomal protein S6 kinase alpha-2 (Homo sapiens) (UniProt Q15349)
[42] = biological target: Serine/threonine-protein kinase 16 (Homo sapiens) (UniProt O75716)
[43] = biological target: Transient receptor potential cation channel subfamily M member 6 (Homo sapiens) (UniProt Q9BX84)
[44] = biological target: Serine/threonine-protein kinase ULK2 (Homo sapiens) (UniProt Q8IYT8)
[45] = biological target: Serine/threonine-protein kinase 25 (Homo sapiens) (UniProt O00506)

Measured: residual activity

Bone morphogenetic protein receptor type-1A (Homo sapiens), sequence (P36894 whole entry): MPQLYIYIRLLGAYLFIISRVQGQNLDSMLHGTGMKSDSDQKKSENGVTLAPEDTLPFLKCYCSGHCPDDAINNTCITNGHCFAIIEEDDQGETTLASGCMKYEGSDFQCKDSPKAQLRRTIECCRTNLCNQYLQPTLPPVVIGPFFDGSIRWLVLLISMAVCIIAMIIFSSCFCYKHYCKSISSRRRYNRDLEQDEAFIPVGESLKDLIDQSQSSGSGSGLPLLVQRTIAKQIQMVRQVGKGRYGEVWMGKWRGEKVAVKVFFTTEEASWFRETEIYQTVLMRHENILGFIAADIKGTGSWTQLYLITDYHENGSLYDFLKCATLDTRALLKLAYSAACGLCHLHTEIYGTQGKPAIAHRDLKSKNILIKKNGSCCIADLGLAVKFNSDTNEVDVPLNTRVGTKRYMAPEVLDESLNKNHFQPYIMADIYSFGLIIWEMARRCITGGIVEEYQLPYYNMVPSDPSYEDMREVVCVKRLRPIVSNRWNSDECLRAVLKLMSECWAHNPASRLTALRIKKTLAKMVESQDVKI
Casein kinase I isoform gamma-3 (Homo sapiens), sequence (Q9Y6M4 whole entry, looked up, canonical isoform): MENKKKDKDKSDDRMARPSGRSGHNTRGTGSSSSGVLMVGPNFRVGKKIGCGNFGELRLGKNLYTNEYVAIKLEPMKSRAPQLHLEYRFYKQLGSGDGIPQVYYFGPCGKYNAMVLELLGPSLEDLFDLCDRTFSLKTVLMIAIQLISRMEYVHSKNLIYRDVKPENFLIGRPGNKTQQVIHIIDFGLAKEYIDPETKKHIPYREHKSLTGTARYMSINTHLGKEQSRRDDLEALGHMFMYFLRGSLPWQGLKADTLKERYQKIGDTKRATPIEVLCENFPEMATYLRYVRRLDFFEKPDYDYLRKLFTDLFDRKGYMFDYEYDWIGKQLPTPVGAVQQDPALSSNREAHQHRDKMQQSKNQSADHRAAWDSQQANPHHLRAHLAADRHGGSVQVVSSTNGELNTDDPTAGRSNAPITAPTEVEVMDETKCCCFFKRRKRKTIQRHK
Serine/threonine-protein kinase LATS2 (Homo sapiens), sequence (Q9NRM7 whole entry): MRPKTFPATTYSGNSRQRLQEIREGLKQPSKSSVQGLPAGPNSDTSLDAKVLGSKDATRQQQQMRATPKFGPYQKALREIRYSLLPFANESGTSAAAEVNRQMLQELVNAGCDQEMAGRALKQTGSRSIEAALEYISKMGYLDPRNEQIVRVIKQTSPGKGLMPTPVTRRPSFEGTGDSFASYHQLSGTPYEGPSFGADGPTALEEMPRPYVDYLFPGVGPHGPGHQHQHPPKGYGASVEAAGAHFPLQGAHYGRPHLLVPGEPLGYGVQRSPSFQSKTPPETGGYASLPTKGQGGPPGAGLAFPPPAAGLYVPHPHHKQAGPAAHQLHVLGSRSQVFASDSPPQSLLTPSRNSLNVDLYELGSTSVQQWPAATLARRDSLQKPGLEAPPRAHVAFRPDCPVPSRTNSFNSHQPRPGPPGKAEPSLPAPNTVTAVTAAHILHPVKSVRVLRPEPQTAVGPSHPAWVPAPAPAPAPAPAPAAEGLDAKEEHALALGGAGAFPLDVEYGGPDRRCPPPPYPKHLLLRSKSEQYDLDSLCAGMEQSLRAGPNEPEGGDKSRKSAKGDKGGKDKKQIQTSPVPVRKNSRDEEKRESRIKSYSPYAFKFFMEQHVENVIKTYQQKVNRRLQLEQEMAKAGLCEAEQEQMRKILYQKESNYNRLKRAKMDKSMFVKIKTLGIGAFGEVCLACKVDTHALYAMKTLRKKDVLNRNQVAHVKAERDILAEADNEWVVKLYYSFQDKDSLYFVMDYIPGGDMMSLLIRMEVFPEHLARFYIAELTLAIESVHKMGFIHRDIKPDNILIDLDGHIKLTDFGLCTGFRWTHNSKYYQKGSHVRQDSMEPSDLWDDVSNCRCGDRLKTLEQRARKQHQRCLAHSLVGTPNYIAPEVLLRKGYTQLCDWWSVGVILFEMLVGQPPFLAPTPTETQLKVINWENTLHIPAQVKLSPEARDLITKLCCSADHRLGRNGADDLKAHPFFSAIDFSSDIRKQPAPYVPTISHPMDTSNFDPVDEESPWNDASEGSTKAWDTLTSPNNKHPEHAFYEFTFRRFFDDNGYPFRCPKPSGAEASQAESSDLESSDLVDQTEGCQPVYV
Serine/threonine-protein kinase 16 (Homo sapiens), sequence (O75716 whole entry): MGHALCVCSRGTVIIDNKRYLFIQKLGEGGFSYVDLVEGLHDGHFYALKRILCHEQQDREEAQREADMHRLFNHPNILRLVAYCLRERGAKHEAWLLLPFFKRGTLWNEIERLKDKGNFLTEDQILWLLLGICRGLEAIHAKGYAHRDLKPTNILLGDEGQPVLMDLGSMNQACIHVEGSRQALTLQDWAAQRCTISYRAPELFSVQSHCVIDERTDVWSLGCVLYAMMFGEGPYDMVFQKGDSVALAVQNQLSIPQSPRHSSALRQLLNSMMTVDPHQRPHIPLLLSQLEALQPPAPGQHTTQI
Phosphatidylinositol 4,5-bisphosphate 3-kinase catalytic subunit gamma isoform (Homo sapiens), sequence (P48736 whole entry, looked up, canonical isoform): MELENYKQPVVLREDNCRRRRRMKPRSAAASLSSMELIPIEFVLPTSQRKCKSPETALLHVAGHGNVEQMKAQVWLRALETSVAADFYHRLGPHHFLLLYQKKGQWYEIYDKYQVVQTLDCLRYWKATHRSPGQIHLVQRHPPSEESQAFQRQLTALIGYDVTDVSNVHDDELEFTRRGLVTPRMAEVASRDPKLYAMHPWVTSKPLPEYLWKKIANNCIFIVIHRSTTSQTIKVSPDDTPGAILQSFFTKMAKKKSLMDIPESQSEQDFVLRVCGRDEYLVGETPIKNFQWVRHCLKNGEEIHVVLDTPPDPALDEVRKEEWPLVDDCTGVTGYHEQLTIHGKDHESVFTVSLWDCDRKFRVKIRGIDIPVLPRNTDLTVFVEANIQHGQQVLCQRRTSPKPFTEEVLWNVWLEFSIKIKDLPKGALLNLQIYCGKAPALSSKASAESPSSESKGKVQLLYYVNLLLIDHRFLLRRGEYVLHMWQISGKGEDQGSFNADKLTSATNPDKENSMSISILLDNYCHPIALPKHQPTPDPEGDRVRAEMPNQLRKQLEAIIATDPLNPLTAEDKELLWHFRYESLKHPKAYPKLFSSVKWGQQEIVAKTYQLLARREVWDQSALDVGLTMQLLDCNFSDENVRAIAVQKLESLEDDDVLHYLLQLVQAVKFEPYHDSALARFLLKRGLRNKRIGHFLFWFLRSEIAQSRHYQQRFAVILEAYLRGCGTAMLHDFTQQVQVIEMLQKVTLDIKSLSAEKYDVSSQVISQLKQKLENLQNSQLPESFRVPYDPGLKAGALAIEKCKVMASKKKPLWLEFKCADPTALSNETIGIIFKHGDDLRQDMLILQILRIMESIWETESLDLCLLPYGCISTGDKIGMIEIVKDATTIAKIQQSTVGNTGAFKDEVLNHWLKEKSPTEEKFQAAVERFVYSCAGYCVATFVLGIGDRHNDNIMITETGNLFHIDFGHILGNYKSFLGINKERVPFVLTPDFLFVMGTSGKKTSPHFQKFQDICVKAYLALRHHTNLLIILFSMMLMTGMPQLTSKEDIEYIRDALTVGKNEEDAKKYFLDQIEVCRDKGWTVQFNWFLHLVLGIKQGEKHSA
Phosphatidylinositol 5-phosphate 4-kinase type-2 beta (Homo sapiens), sequence (P78356 whole entry): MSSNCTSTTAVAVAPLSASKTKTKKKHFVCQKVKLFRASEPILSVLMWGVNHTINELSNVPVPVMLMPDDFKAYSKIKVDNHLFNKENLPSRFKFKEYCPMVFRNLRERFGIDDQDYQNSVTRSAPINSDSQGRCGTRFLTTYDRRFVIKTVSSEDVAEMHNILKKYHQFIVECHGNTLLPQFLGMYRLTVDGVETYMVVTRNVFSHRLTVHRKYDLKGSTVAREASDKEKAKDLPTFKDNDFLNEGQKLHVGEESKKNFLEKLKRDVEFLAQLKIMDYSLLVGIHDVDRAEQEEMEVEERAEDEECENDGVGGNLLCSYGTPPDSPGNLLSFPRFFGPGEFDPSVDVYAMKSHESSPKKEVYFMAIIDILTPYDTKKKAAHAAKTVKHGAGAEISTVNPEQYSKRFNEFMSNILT
Ribosomal protein S6 kinase alpha-3 (Homo sapiens), sequence (P51812 whole entry): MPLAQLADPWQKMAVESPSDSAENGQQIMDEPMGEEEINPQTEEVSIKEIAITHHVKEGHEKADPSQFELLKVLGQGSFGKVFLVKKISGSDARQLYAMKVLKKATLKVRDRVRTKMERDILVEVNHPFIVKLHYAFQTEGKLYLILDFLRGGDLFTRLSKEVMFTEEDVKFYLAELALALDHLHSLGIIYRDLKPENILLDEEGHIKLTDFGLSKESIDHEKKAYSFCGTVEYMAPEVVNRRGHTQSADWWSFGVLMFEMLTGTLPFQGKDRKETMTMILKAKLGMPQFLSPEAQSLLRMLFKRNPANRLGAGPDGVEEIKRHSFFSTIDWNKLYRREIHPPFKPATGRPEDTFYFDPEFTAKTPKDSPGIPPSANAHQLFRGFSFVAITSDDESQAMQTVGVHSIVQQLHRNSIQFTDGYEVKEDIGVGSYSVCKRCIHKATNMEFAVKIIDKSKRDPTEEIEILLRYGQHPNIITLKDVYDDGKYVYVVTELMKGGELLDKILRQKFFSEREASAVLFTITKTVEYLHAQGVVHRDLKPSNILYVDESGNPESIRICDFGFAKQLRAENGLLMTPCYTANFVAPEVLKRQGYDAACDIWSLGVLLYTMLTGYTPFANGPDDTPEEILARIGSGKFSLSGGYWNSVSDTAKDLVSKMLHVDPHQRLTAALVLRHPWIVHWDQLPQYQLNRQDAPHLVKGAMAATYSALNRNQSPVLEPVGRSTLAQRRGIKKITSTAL
Cyclin-dependent kinase 4 (Homo sapiens), sequence (P11802 whole entry, canonical isoform): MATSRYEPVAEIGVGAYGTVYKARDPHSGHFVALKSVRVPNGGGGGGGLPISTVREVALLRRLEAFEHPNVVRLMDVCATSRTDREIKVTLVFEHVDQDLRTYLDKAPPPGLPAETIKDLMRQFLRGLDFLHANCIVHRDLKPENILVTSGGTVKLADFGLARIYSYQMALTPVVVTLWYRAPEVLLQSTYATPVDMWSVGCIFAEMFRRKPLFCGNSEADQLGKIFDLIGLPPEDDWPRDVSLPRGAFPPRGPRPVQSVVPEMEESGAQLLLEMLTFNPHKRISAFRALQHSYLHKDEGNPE

O=C1NC(c2ccccn2)Sc2ccccc21 (stereo not given) [BTZO-4]
inactive: [1] 100% | [2] 73% | [3] 100% | [4] 100% | [5] 74% | [6] 100% | [7] 98% | [8] 100% | [9] 91% | [10] 100% | [11] 100% | [12] 69% | [13] 100% | [14] 86% | [15] 70% | [16] 100% | [17] 73% | [18] 90% | [19] 75% | [20] 77% | [21] 100% | [22] 100% | [23] 98% | [24] 70% | [25] 91% | [26] 100% | [27] 93% | [28] 72% | [29] 84% | [30] 100% | [31] 76% | [32] 100% | [33] 83% | [34] 91% | [35] 100% | [36] 100% | [37] 96% | [38] 83% | [39] 100% | [40] 78% | [41] 93% | [42] 83% | [43] 64% | [44] 76% | [45] 78%

O=c1nc(-c2ccccn2)sc2ccccc12 [BTZO-1]
inactive: [1] 100% | [2] 82% | [3] 100% | [4] 100% | [5] 96% | [6] 100% | [7] 96% | [8] 86% | [9] 100% | [10] 100% | [11] 100% | [12] 97% | [13] 100% | [14] 100% | [15] 84% | [16] 100% | [17] 82% | [18] 94% | [19] 86% | [20] 82% | [21] 100% | [22] 95% | [23] 95% | [24] 79% | [25] 73% | [26] 100% | [27] 100% | [28] 83% | [29] 91% | [30] 100% | [31] 76% | [32] 100% | [33] 84% | [34] 100% | [35] 100% | [36] 100% | [37] 97% | [38] 94% | [39] 100% | [40] 88% | [41] 100% | [42] 83% | [43] 77% | [44] 100% | [45] 100%
